These results are taken from patent publication US6555580B2, “Amino- and amido-diphenyl ethers” (Bayer Aktiengesellschaft, priority 2000, dated 2003).

What is called EC50 is the concentration giving half of the maximal effect.

The assay is described as follows: T3 promoter assay cell test (luciferase reporter under thyroid hormone-regulated promoter). The assay is classed as cell-based. The settings on record: Homo sapiens; HepG2 luciferase reporter with thyroid hormone-responsive element; costimulator retinoic acid; incubation 48 or 72 hours; four replicates. As to the method:
The activity of the compounds according to the invention can be tested for example in vitro by the known T3 promoter assay cell test which is described below.
T3 Promoter Assay Cell Test
The test is carried out with a stably transfected human HepG2 hepatocarcinoma cell which expresses a luciferase gene under the control of a thyroid hormone-regulated promoter. The vector used for the transfection has upstream of the luciferase gene a minimal thymidine kinase promoter with a thyroid hormone-responsive element (TRE) which consists of two inverted palindromes each of 12 bp and of an 8 bp spacer.
For the test, the cell cultures are seeded in Eagle's minimal essential medium in 96-well plates with the following additions: glutamine, tricine, sodium pyruvate, nonessential amino acids, insulin, selenium and transferrin. The cultures are grown at 37° C. with a 10% CO2 atmosphere for 48 hours. In serial dilutions of test substance or reference compound (triiodothyronine=T3, thyroxine=T4) and costimulator retinoic acid are added to the test cultures and the latter are incubated as previously for a further 48 or 72 hours. Each substance concentration is tested in four replicates. To determine the luciferase induced by T3 or other substances, the cells are subsequently lysed by adding a Triton- and luciferin-containing buffer and measured immediately in a luminometer. The EC50 values for each compound are calculated (see Table 1).
Regarding `CCOC(=O)C(=O)Nc1cc(C)c(Oc2ccc(O)c(NC(=O)CCc3ccccc3)c2)c(C)c1` [Example 8, Ethyl (4-{4-hydroxy-3-[(3-phenylpropanoyl)amino]phenoxy}-3,5-dimethylanilino)(oxo)acetate], the midpoint of the response, the EC50, lay at 20 nM.
In the case of `CCOC(=O)C(=O)Nc1cc(C)c(Oc2ccc(O)c(C(=O)N(C)C3CCCCC3)c2)c(C)c1` [Example 16, Ethyl [4-(3-{[cyclohexyl(methyl)amino]carbonyl}-4-hydroxyphenoxy)-3,5-dimethylanilino](oxo)acetate] it was 28 nM; in that of `CCCN(Cc1ccccc1)Cc1cc(Oc2c(C)cc(NC(=O)C(=O)OCC)cc2C)ccc1O` [Example 29], 2.4 nM; in that of `CCOC(=O)C(=O)Nc1cc(C)c(Oc2ccc(O)c(CN(Cc3ccccc3)Cc3ccccc3)c2)c(C)c1` [Example 54], 6.7 nM.
In the case of `CCCCCCCC(=O)N(Cc1cc(Oc2c(C)cc(NC(=O)C(=O)OCC)cc2C)ccc1O)c1ccc(F)cc1` [Example 122] it was 55 nM; in that of `CCOC(=O)C(=O)Nc1cc(C)c(Oc2ccc(O)c(NC(=O)C(C)Oc3ccc(Cl)cc3C)c2)c(C)c1` (centres unmarked) [Example 190], 14 nM.
In the case of `Cc1cc(N)cc(C)c1Oc1ccc(O)c(NC(=O)NC(C)c2ccccc2)c1` (centres unmarked) [Example 204] it was 61 nM; in that of `CCOC(=O)C(=O)Nc1cc(C)c(Oc2ccc(O)c(C(=O)NC(CC)c3ccccc3)c2)c(C)c1` (centres unmarked) [Example 260], 12 nM.
